{"source": "patent US20150352111A1", "about": "“Therapeutic Indications of Kinase Inhibitors” (Pulmokine, Inc., priority 2013, published 2015)", "origin": "cited, not measured here", "key": {"[1]": {"system": "PASMCs", "settings": "cited from earlier work"}, "[2]": {"system": "rat MCT model of PAH", "settings": "cited from earlier work"}, "[3]": {"system": "patients with PAH", "settings": "cited from earlier work"}, "[4]": {"system": "phospho-ERK1/2", "settings": "rat MCT model; cited from earlier work"}}, "data": [{"molecule": "Cc1ccc(NC(=O)c2ccc(CN3CCN(C)CC3)cc2)cc1Nc1nccc(-c2cccnc2)n1", "note": "[imatinib]", "values": [{"measurement": "migration of PASMCs", "setting": "[1]", "result": "inhibited"}, {"measurement": "RVSP", "setting": "[2]", "result": "decreased"}, {"measurement": "survival", "setting": "[2]", "result": "improved"}, {"measurement": "primary efficacy parameter (6MWD) compared with placebo", "setting": "[3]; 6 month period, US 2011/0190313", "result": "did not improve"}, {"measurement": "6-min walk distance", "setting": "[3]; IMPRES trial, patients with severe PAH", "result": "improvement"}, {"measurement": "phospho-ERK1/2", "setting": "[4]", "result": "reduction"}]}]}
